Test results taken from US9845330B2, “6-nitro-2,3-dihydroimidazo[2,1-b]oxazoles and a process for the preparation thereof” (priority 2013, dated 2017).
In brackets after ≈: the same amount, converted by molar mass. Read-outs that look alike come from different tables or passages of the source.

Key:
[1] = test system: M. tuberculosis H37Rv (ATCC 27294); test: MIC by broth dilution method, M. tuberculosis H37Rv; format: cell-based; details: Mycobacterium tuberculosis, 504 h
[2] = test system: macrophage J774 cells line; test: Cytotoxicity assay (MTT) in macrophage J774 cells; format: cell-based; details: J774 cells, 24 hrs, MTT
Experimental: The study was carried out using macrophage J774 cells line (ATCC-USA). Cells were grown in Rosewell Park Memorial Institute Medium (RPMI) containing 10% fetal calf serum (FCS) and supplemented with 75 mg/liter penicillin, 100 mg/liter streptomycin, 110 mg/liter Sodium pyruvate, 2.38 gm/liter HEPES, 0.05 mM 2 β-mercaptoethanol, and 2 gm/liter NaHCO3, in a humidified atmosphere in 5% CO2 at 37° C., and were sub-cultured at 1:4 ratio once a week.
Cells were plated at a density of 3×10^4 cells/cm^2 and maintained in culture medium for 12 hours. Cells were seeded onto 96-well flat bottom plates and FCS was reduced to 5% for the experiment. Stock solutions of compounds IA1 to IIC10 were prepared fresh to avoid oxidation. Cells were incubated with the compounds (40 μg/ml) for 24 hrs.
After the completion of incubation, the medium was removed and cell viability was evaluated by assaying for the ability of functional mitochondria to catalyze the reduction of 3-(4,5-dimethylthiazol-2-yl)-2,5-diphenyltetrazolium bromide (MTT) to form formazan salt by mitochondrial dehydrogenases, and determined by Elisa reader at 450 nm (Multiskan Spectrum; Thermo Electron Corporation, USA). Percentage cytotoxicity was calculated with respect to the untreated cells.

[3] = broth dilution, 3 weeks, read-out: MIC M. tb H37Rv
[4] = text summary: sensitive H37Rv as well as MDR and XDR strains of M. tuberculosis, read-out: MIC value

| SMILES | MIC [1, 3] [µg/mL] | MIC [1, 4] [µg/mL] | Cytotoxicity [2] [µg/mL] |
| --- | --- | --- | --- |
| C[C@]1(COc2ccc(-n3nnnc3Oc3ccc(C(F)(F)F)cc3)cc2)Cn2cc([N+](=O)[O-])nc2O1 [IB8, (R)-2-{4-[5-(4-trifluoromethylphenoxy)-1H-tetrazol-1-yl]phenoxymethyl}-2,3-dihydro-2-methyl-6-nitroimidazo[2,1-b]oxazole] | 4 (≈ 7.95 µM) | 1 to 4 (≈ 1.99 to 7.95 µM) | >40 |
| Cc1ccc(Oc2nnnn2-c2ccc(OC[C@@]3(C)Cn4cc([N+](=O)[O-])nc4O3)cc2)cc1 [IB9, (R)-2-{4-[5-(4-methylphenoxy)-1H-tetrazol-1-yl]phenoxymethyl}-2,3-dihydro-2-methyl-6-nitroimidazo[2,1-b]oxazole] | 4 (≈ 8.9 µM) | 1 to 4 (≈ 2.23 to 8.9 µM) | >40 |
| C[C@]1(COc2ccc(-n3nnnc3Oc3ccc(OC(F)(F)F)cc3)cc2)Cn2cc([N+](=O)[O-])nc2O1 [IB10, (R)-2-{4-[5-(4-trifluoromethoxyphenoxy)-1H-tetrazol-1-yl]phenoxymethyl}-2,3-dihydro-2-methyl-6-nitroimidazo[2,1-b]oxazole] | 1 (≈ 1.93 µM) | 1 to 4 (≈ 1.93 to 7.7 µM) | >40 |
| C[C@]1(COc2ccc(-c3cc(-c4cccc(F)c4)on3)cc2)Cn2cc([N+](=O)[O-])nc2O1 [IC8, (R)-2-{4-[5-(3-fluorophenyl)isoxazol-3-yl]phenoxymethyl}-2,3-dihydro-2-methyl-6-nitroimidazo[2,1-b]oxazole] | 2 (≈ 4.58 µM) |  | >40 |
| C[C@]1(COc2ccc(-c3cc(-c4ccccn4)on3)cc2)Cn2cc([N+](=O)[O-])nc2O1 [IC9, (R)-2-{4-[5-(pyridin-2-yl)isoxazol-3-yl]phenoxymethyl}-2,3-dihydro-2-methyl-6-nitroimidazo[2,1-b]oxazole] | 2 (≈ 4.77 µM) |  | >40 |
| CCc1ccc(OCc2cc(-c3ccc(OC[C@@]4(C)Cn5cc([N+](=O)[O-])nc5O4)cc3)no2)cc1 [IC19, (R)-2-{4-[5-(4-ethylphenoxymethyl)isoxazol-3-yl]phenoxymethyl}-2,3-dihydro-2-methyl-6-nitroimidazo[2,1-b]oxazole] | 2 (≈ 4.2 µM) |  | >40 |
| CCC(C)c1ccc(OCc2cc(-c3ccc(OC[C@@]4(C)Cn5cc([N+](=O)[O-])nc5O4)cc3)no2)cc1 (stereo partly drawn) [IC20, (R)-2-{4-[5-(4-sec-butylphenoxymethyl)isoxazol-3-yl]phenoxymethyl}-2,3-dihydro-2-methyl-6-nitroimidazo[2,1-b]oxazole] | 2 (≈ 3.96 µM) |  | >40 |
| C[C@]1(COc2ccc(-c3cc(COc4ccccc4)on3)cc2)Cn2cc([N+](=O)[O-])nc2O1 [IC21, (R)-2-{4-[5-(phenoxymethyl)isoxazol-3-yl]phenoxymethyl}-2,3-dihydro-2-methyl-6-nitroimidazo[2,1-b]oxazole] | 4 (≈ 8.92 µM) |  | >40 |
| COc1ccc(NC(=S)Nc2ccc(OC[C@@]3(C)Cn4cc([N+](=O)[O-])nc4O3)cc2)cc1 [IIA7, (R)-1-(4-methoxyphenyl)-3-{4-(2-methyl-6-nitro-2,3-dihydroimidazo[2,1-b]oxazol-2-yl)methoxyphenyl}thiourea] | 2 (≈ 4.39 µM) |  | >40 |
| C[C@]1(COc2ccc(NC(=S)Nc3ccc(OC(F)(F)F)cc3)cc2)Cn2cc([N+](=O)[O-])nc2O1 [IIA8, (R)-1-(4-trifluoromethoxyphenyl)-3-{4-(2-methyl-6-nitro-2,3-dihydroimidazo[2,1-b]oxazol-2-yl)methoxyphenyl}thiourea] | 2 (≈ 3.93 µM) |  | >40 |
| C[C@]1(COc2ccc(NC(=S)Nc3ccc(F)cc3)cc2)Cn2cc([N+](=O)[O-])nc2O1 [IIA9, (R)-1-(4-fluorophenyl)-3-{4-(2-methyl-6-nitro-2,3-dihydroimidazo[2,1-b]oxazol-2-yl)methoxyphenyl}thiourea] | 4 (≈ 9.02 µM) |  | >40 |
